# From patent US20110172297A1, “Oxopiperdinyl And Pyranyl Sulfonamides and Pharmaceutical Compositions Thereof” (Pfizer Inc, priority 2008, published 2011)
# System: AMPA receptors
# Assay: AMPA ES cell FLIPR screen (AMPA Potentiator Assay)
# Format: cell-based
# Conditions: murine ES cell-derived neurons, FLIPR Fluo-4 calcium signal, 32 uM AMPA challenge; values marked * are the geometric mean of 2-9 EC50 determinations
# Description: The murine ES cell line used was E14-Sx1-16C, which has a targeted mutation in the Sox1 gene, a neuroectodermal marker, that offers G418 resistance when the Sox1 gene is expressed (Stem Cell Sciences). ES cells were maintained undifferentiated as previously described (Roach). […] ES cells were plated on gelatin-coated dishes (BD Biosciences), the media was changed daily and the cells were dissociated with 0.05% Trypsin EDTA (Invitrogen) every other day.
# Embryoid Body Formation: Prior to embryoid body (EB) formation the ES cells were weaned from FBS onto Knockout Serum Replacement (KSR) (Invitrogen). To form EBs, ES cells were dissociated into a single cell suspension, then 3×10^6 cells were plated in bacteriology dishes (Nunc 4014) and grown as a suspension culture in NeuroEB-I medium that consisted of Knockout™ D-MEM (Invitrogen), supplemented with 10% KSR (Invitrogen), 0.2 mM L-Glutamine (Invitrogen), 0.1 mM MEM non-essential amino acids (Invitrogen), 30 μg/ml Gentamicin (Invitrogen), 1000 u/ml ESGRO (Chemicon), 0.1 mM 2-Mercaptoethanl (Sigma) and 150 ng/ml Transferrin (Invitrogen). The plates were put on a Stovall Belly Button shaker in an atmospheric oxygen incubator. The media was changed on day 2 of EB formation with NeuroEB-I and on day 4 with NeuroEB-II (NeuroEB-I plus 1 μg/ml mNoggin [R&D Systems]).
# Neuronal Precursor Selection and Expansion: On day 5 of EB formation, EBs were dissociated with 0.05% Trypsin EDTA, and 4×10^6cells/100 mm dish were plated on Laminin coated tissue culture dishes in Neuroll-G418 medium that consisted of a base medium of a 1:1 mixture of D-MEM/F12 supplemented with N2 supplements and NeuroBasal Medium supplemented with B27 supplement and 0.1 mM L-Glutamine (all from Invitrogen). The base medium was then supplemented with 10 ng/ml bFGF (Invitrogen), 1 μg/ml mNoggin, 500 ng/ml SHH—N, 100 ng/ml FGF-8b (R&D Systems), 1 μg/ml Laminin and 200 μg/ml G418 (Invitrogen) for selection of neuronal precursors expressing Sox-1. The plates were put in an incubator that contained 2% Oxygen and were maintained in these conditions. During the 6-day selection period, the Neuroll media was changed daily. On day 6, the surviving neuronal precursor foci were dissociated with 0.05% Trypsin EDTA and the cells were plated at a density of 1.5×10^6 cells/100 mm Laminin coated dish in Neuroll-G418 medium. The cells were dissociated every other day for expansion, and prepared for Cryopreservation at passage 3 or 4. The crypreservation medium contained 50% KSR, 10% Dimethyl Sulfoxide (DMSO) (Sigma) and 40% Neurol-G418I medium. Neuronal precursors were crypreserved at a concentration of 4×10^6 cells/ml and 1 ml/cryovial in a controlled rate freezer overnight then transferred to an ultra-low freezer or liquid nitrogen for long-term storage.
# Neuronal Differentiation: Cryopreserved ES cell-derived neuronal precursors were thawed by the rapid thaw method in a 37-degree water-bath. The cells were transferred from the cryovial to a 100 mm Laminin coated tissue culture dish that already contained Neuroll-G418 that had been equilibrated in a 2% Oxygen incubator. The media was changed with fresh Neuroll-G418 the next day. The cells were dissociated every other day as described above for expansion to generate enough cells to plate for the screen. For the screen, the cells were plated into 384-well poly-d-lysine coated tissue culture dishes (BD Biosciences) by the automated SelecT at a cell density of 6K cells/well in differentiation medium Neurolll that contained a 4:1 ratio of the NeuroBasalMedium/B27:D-MEM/F12/N2 supplemented with 1 μM cAMP (Sigma), 200 μM Ascorbic Acid (Sigma), 1 μg/ml Laminin (Invitrogen) and 10 ng/ml BDNF (R&D Systems). The plates were put in an incubator with 2% Oxygen and allowed to complete the differentiation process for 7 days. The cells could then be used over a 5-day period for the high throughput screen.
# On the day of the assay, the FLIPR assay may be performed using the following methods: […]
row,Compound,EC50 [µM]
1,"CC(C)S(=O)(=O)N[C@@H]1CCCO[C@H]1c1ccc(-c2ccccc2C#N)cc1 [Example 47, N-[(2S,3R)-2-(2′-cyanobiphenyl-4-yl)tetrahydro-2H-pyran-3-yl]propane-2-sulfonamide]",20.3
2,"CCOc1ccccc1-c1ccc([C@@H]2COCC[C@H]2NS(=O)(=O)C(C)C)cc1 [Example 35, N-[(3S,4R)-3-(2′-ethoxybiphenyl-4-yl)tetrahydro-2H-pyran-4-yl]propane-2-sulfonamide]",4.57
3,"CCOc1ccccc1-c1ccc([C@@H]2COCC[C@@H]2NS(=O)(=O)C(C)C)cc1 [Example 27, N-[(3S,4S)-3-(2′-ethoxybiphenyl-4-yl)tetrahydro-2H-pyran-4-yl]propane-2-sulfonamide]",0.32
4,"CCOc1ccccc1-c1ccc([C@@H]2CCOC[C@@H]2NS(=O)(=O)C(C)C)cc1 [Example 63, N-[(3R,4S)-4-(2′-ethoxybiphenyl-4-yl)tetrahydro-2H-pyran-3-yl]propane-2-sulfonamide]",0.669
5,"CC(C)S(=O)(=O)N[C@H]1CCOC[C@@H]1c1ccc(-c2ccccc2)cc1 [Example 2, N-[(3R,4S)-3-biphenyl-4-yltetrahydro-2H-pyran-4-yl]propane-2-sulfonamide]",0.365
6,"CC(C)S(=O)(=O)N[C@H]1COCC[C@@H]1c1ccc(-c2ccccc2)cc1 [Example 16, N-[(3R,4R)-4-biphenyl-4-yltetrahydro-2H-pyran-3-yl]propane-2-sulfonamide]",1.84
7,"CC(C)S(=O)(=O)N[C@@H]1COCC[C@@]1(O)c1ccc(-c2ccccc2)cc1 [Example 6, N-[(3R,4R)-4-biphenyl-4-yl-4-hydroxytetrahydro-2H-pyran-3-yl]propane-2-sulfonamide]",> 31.6
8,"CC(C)S(=O)(=O)N[C@H]1COCC[C@H]1c1ccc(-c2ccccc2)cc1 [Example 55, N-[(3R,4S)-4-biphenyl-4-yltetrahydro-2H-pyran-3-yl]propane-2-sulfonamide]",> 31.6
9,"CC(C)S(=O)(=O)N[C@H]1CCOC[C@@H]1c1ccc(-c2cccnc2)cc1 [Example 36, N-[(3R,4S)-3-(4-pyridin-3-ylphenyl)tetrahydro-2H-pyran-4-yl]propane-2-sulfonamide]",> 31.6
10,"CC(C)S(=O)(=O)N[C@H]1CCOC[C@H]1c1ccc(-c2ccccc2)cc1 [Example 25, N-[(3S,4S)-3-biphenyl-4-yltetrahydro-2H-pyran-4-yl]propane-2-sulfonamide]",0.684
11,"CC(C)S(=O)(=O)N[C@@H]1CCOC[C@@H]1c1ccc(-c2ccccc2)cc1 [Example 26, N-[(3R,4R)-3-biphenyl-4-yltetrahydro-2H-pyran-4-yl]propane-2-sulfonamide]",> 31.6
12,"CC(C)S(=O)(=O)N[C@@H]1CCCO[C@H]1c1ccc(-c2ccccc2)cc1 [Example 43, N-[(2S,3R)-2-biphenyl-4-yltetrahydro-2H-pyran-3-yl]propane-2-sulfonamide]",> 31.6
13,"CC(C)S(=O)(=O)N[C@H]1COCC[C@@]1(O)c1ccc(-c2ccccc2)cc1 [Example 3, N-[(3S,4R)-4-biphenyl-4-yl-4-hydroxytetrahydro-2H-pyran-3-yl]propane-2-sulfonamide]",4.3
14,"CC(C)S(=O)(=O)N[C@@H]1COCC[C@H]1c1ccc(-c2ccccc2)cc1 [Example 15, N-[(3S,4S)-4-biphenyl-4-yltetrahydro-2H-pyran-3-yl]propane-2-sulfonamide]",> 31.6

# Next, values leading:
row,EC50 [µM],Compound
1,> 31.6,"CC(C)S(=O)(=O)N[C@H]1CCC(=O)N[C@@H]1c1ccc(-c2ccccc2)cc1 [Example 11, N-[(2R,3S)-2-biphenyl-4-yl-6-oxopiperidin-3-yl]propane-2-sulfonamide]"
2,> 26.6,"CC(C)S(=O)(=O)N[C@@H]1CCOC[C@H]1c1ccc(-c2ccccc2C#N)cc1 [Example 32, N-[(3S,4R)-3-(2′-cyanobiphenyl-4-yl)tetrahydro-2H-pyran-4-yl]propane-2-sulfonamide]"
3,> 31.6,"CC(C)S(=O)(=O)N[C@@H]1COCC[C@@H]1c1ccc(-c2ccc(C#N)cc2)cc1 [Example 60, N-[(3S,4R)-4-(4′-cyanobiphenyl-4-yl)tetrahydro-2H-pyran-3-yl]propane-2-sulfonamide]"
4,2.1,"CC(C)S(=O)(=O)N[C@H]1COCC[C@H]1c1ccc(-c2ccc(C#N)s2)cc1 [Example 59, N-{(3R,4S)-4-[4-(5-cyano-2-thienyl)phenyl]tetrahydro-2H-pyran-3-yl}propane-2-sulfonamide]"
5,1.71,"CC(C)S(=O)(=O)N[C@@H]1CCC(=O)N[C@H]1c1ccc(-c2ccc(C#N)s2)cc1 [Example 51, N-{(2S,3R)-2-[4-(5-cyano-2-thienyl)phenyl]-6-oxopiperidin-3-yl}propane-2-sulfonamide]"
6,2.36,"CC(C)S(=O)(=O)N[C@H]1CCC(=O)N[C@@H]1c1ccc(-c2ccc(C#N)s2)cc1 [Example 53, N-{(2R,3S)-2-[4-(5-cyano-2-thienyl)phenyl]-6-oxopiperidin-3-yl}propane-2-sulfonamide]"
7,9.79,"CC(C)S(=O)(=O)N[C@H]1COCC[C@@H]1c1ccc(-c2ccc(C#N)s2)cc1 [Example 20, N-{(3R,4R)-4-[4-(5-cyano-2-thienyl)phenyl]tetrahydro-2H-pyran-3-yl}propane-2-sulfonamide]"
8,> 31.6,"CC(C)S(=O)(=O)N[C@@H]1CCOC[C@@H]1c1ccc(-c2ccc(C#N)s2)cc1 [Example 21, N-{(3R,4R)-3-[4-(5-cyano-2-thienyl)phenyl]tetrahydro-2H-pyran-4-yl}propane-2-sulfonamide]"
9,> 31.6,"CC(C)S(=O)(=O)N[C@@H]1CCOC[C@@H]1c1ccc(-c2ccc(C#N)cc2)cc1 [Example 30, N-[(3R,4R)-3-(4′-cyanobiphenyl-4-yl)tetrahydro-2H-pyran-4-yl]propane-2-sulfonamide]"
10,10.3,"CC(C)S(=O)(=O)N[C@@H]1CCOC[C@@H]1c1ccc(-c2ccccc2C#N)cc1 [Example 23, N-[(3R,4R)-3-(2′-cyanobiphenyl-4-yl)tetrahydro-2H-pyran-4-yl]propane-2-sulfonamide]"
11,11,"CC(C)S(=O)(=O)N[C@H]1CCOC[C@H]1c1ccc(-c2ccc(C#N)s2)cc1 [Example 1, N-{(3S,4S)-3-[4-(5-cyano-2-thienyl)phenyl]tetrahydro-2H-pyran-4-yl}propane-2-sulfonamide]"
12,5.64,"CC(C)S(=O)(=O)N[C@H]1CCCO[C@@H]1c1ccc(-c2ccc(C#N)s2)cc1 [Example 48, N-{(2R,3S)-2-[4-(5-cyano-2-thienyl)phenyl]tetrahydro-2H-pyran-3-yl}propane-2-sulfonamide]"
13,> 31.6,"CC(C)S(=O)(=O)N[C@@H]1COCC[C@@H]1c1ccc(-c2ccccc2C#N)cc1 [Example 56, N-[(3S,4R)-4-(2′-cyanobiphenyl-4-yl)tetrahydro-2H-pyran-3-yl]propane-2-sulfonamide]"
14,1.24,"CC(C)S(=O)(=O)N[C@H]1CCCO[C@@H]1c1ccc(-c2ccccc2C#N)cc1 [Example 46, N-[(2R,3S)-2-(2′-cyanobiphenyl-4-yl)tetrahydro-2H-pyran-3-yl]propane-2-sulfonamide]"
15,1.04,"CC(C)S(=O)(=O)N[C@H]1CCOC[C@@H]1c1ccc(-c2ccc(C#N)cc2)cc1 [Example 38, N-[(3R,4S)-3-(4′-cyanobiphenyl-4-yl)tetrahydro-2H-pyran-4-yl]propane-2-sulfonamide]"
